Test results: patent US20100004222A1, “Amide Derivatives as Ion-Channel Ligands and Pharmaceutical Compositions and Methods of Using the Same” (Renovis, Inc., priority 2006, published 2010)
“Also recorded” adds a separate entry of the source.

Key:
[1] = biological target: T1, VR1 (Homo sapiens, UniProt Q8NER1); experiment: Calcium uptake assay, capsaicin agonist (high throughput calcium imaging); type: cell-based; design: expressed in transfected cells; host or cells: T-REx HEK 293 (Invitrogen), pcDNA5/TO vector; conditions: 3 nM; FIGS. 2-6
Target sequence in this assay (Q8NER1 whole entry): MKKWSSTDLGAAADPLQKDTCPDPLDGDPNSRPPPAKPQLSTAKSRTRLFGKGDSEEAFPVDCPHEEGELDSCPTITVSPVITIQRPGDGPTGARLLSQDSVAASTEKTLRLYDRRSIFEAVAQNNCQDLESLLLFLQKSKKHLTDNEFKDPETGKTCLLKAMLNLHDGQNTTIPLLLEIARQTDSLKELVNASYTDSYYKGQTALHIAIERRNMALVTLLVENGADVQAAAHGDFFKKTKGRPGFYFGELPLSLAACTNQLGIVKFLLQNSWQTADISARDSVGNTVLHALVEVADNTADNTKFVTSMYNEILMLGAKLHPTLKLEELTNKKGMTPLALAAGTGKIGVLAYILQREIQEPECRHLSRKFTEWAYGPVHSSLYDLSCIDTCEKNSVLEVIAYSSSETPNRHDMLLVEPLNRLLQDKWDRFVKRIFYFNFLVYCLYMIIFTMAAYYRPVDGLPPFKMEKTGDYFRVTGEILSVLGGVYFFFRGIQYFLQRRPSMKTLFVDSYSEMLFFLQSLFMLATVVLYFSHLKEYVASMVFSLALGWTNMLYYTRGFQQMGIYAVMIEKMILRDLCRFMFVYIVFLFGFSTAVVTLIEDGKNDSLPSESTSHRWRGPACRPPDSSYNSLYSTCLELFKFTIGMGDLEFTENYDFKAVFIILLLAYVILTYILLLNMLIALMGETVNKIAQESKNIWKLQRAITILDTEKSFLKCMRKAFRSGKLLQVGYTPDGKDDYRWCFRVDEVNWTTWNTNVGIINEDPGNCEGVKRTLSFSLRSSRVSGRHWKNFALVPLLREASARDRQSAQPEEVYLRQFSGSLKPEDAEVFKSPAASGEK

[2] = Pharmacokinetic evaluation following intravenous and oral administration in rats; type: in vivo; conditions: male, Sprague-Dawley, plasma, rat; for bioavailability: AUCinf (PO)/AUCinf (IV), dose normalized, PO 5 mg/kg, read-out: Oral Bioavailability F (%); for clearance: non-compartmental analysis, read-out: In vivo Clearance (converted)
Description: Male Sprague-Dawley rats are acclimatized for at least 24 hours prior to experiment initiation. During acclimation period, all animals receive food and water ad libitum. However, food but not water is removed from the animal's cages at least 12 hours before initiation of the experiment. During the first 3 hours of experimentation, the animals receive only water ad libitum. At least three animal each are tested for intravenous and oral dosage. For intravenous formulation, compounds were dissolved (0.25 to 1 mg/mL) in a mixture of 3% dimethyl sulfoxide, 40% PEG 400 and the rest percentage of 40% Captisol in water (w/v). For oral formulation, compounds of this invention are dissolved (2 mg/mL) in a mixture of 5% of 10% Tween 80 in water (v/v) and 95% of 0.5% methyl cellulose in water (w/v). The animals are weighed before dosing. The determined body weight is used to calculate the dose volume for each animal.
Dose volume(mL/kg)=1 mg/kg/formulation concentration(mg/mL)
In instances where the formulation concentrations were less than 0.5 mg/mL, the dosing volume is about 2 mL/kg. PO rats are typically dosed through oral gavage at 2.5 mL/kg to achieve a dose level of 5 mg/kg. For IV dosing, blood samples are collected (using a pre-heparinized syringe) via the jugular vein catheter at 2, 5, 15, 30, 60, 120, 180, 300, 480, and 1440 minutes post dosing. For PO dosing, blood samples are collected (using a pre-heparinized syringe) via the jugular vein catheter before dosing and at 5, 15, 30, 60, 120, 180, 300, 480, and 1440 minutes post dosing. About 250 uL of blood is obtained at each time point from the animal. Equal volumes of 0.9% normal saline are replaced to prevent dehydration. The whole blood samples are maintained on ice until centrifugation. Blood samples are then centrifuged at 14,000 rpm for 10 minutes at 4° C. and the upper plasma layer transferred into a clean vial and stored at −80° C. The resulting plasma samples are then analyzed by liquid chromatography-tandem mass spectrometry. Following the measurement of plasma samples and dosing solutions, plasma concentration-time curve is plotted. Plasma exposure is calculated as the area under the concentration-time curve extrapolated to time infinite (AUCinf). The AUCinf is averaged and the oral bioavailability (% F) for individual animal is calculated as:
AUCinf (PO)/AUCinf (IV), normalized to their respective dose levels. The % F is reported as the mean % F of all animals dosed orally with the compound of the invention at the specified level (Table 6).
In vivo clearance in the rat was calculated by conducting a non-compartmental analysis of the pharmacokinetic profile using WinNonlin software.

[3] = tested on: Dorsal root ganglion (DRG) neurons; experiment: Whole-cell patch clamp electrophysiology; type: cell-based; conditions: Rattus norvegicus, DRG neuron, read-out: % inhibition of capsaicin induced current
Description: Dorsal root ganglion (DRG) neurons were recovered from either neonatal or adult rats and plated onto poly-D-lysine coated glass coverslips. The plated neurons were transferred into a chamber to allow drug solutions to be added to the cells using a computer-controlled solenoid-valve based perfusion system. The cells were imaged using standard DIC optics. Cells were patched using finely-pulled glass electrodes. Voltage-clamp electrophysiology experiments were carried out using an Axon Instruments Multiclamp amplified controlled by pCLAMP8 software.

[4] = tested on: VR1 receptor; experiment: Calcium imaging assay in DRG neurons (capsaicin); type: cell-based; conditions: 3 nM, FIG. 1
Description: Therefore the functional activity of compounds at the VR1 receptor may be determined by measuring changes in intracellular calcium levels in neurons such as the dorsal root ganglion. […] Prior to assay, cells were loaded with 5 μg/ml Fura2 in normal saline solution at 37° C. for 40 minutes. Cells were then washed with normal saline to remove dye before commencement of the experiment. The plated neurons were transferred into a chamber on the stage of a Nikon eclipse TE300 microscope after which neurons were allowed to attain a stable fluorescence for about 10 minutes before beginning the experiment. The assay consists of two stages, a pretreatment phase followed by a treatment phase. First, a solution of the test compound was added from a multivalve perfusion system to the cells for 1 minute (pretreatment). […] Fura2 was excited at […] to indicate relative calcium ion concentration. Changes in wavelength measurements were made throughout the course of the experiment. The fluorescence ratio was calculated by dividing fluorescence measured at 340 nm by that at 380 nM. Data were collected using Intelligent Imaging's Slidebook software.

[5] = Half-life in human liver microsomes (HLM); type: in vitro ADME; conditions: pH 7.4, 1 μM compound, 0.78 mg/mL HLM, 37° C.
Description: Test compounds (1 μM) are incubated with 3.3 mM MgCl2 and 0.78 mg/mL HLM (HL101) in 100 mM potassium phosphate buffer (pH 7.4) at 37° C. on the 96-deep well plate. The reaction mixture is split into two groups, a non-P450 and a P450 group. NADPH is only added to the reaction mixture of the P450 group. An aliquot of samples of P450 group is collected at 0, 10, 30, and 60 min time point, where 0 min time point indicated the time when NADPH is added into the reaction mixture of P450 group. An aliquot of samples of non-P450 group is collected at −10 and 65 min time point. Collected aliquots are extracted with acetonitrile solution containing an internal standard. The precipitated protein is spun down in centrifuge (2000 rpm, 15 min). The compound concentration in supernatant is measured by LC/MS/MS system.
The half-life value is obtained by plotting the natural logarithm of the peak area ratio of compounds/internal standard versus time. The slope of the line of best fit through the points yields the rate of metabolism (k). This is converted to a half-life value using following equations: […]

[6] = biological target: T1, VR1; experiment: Calcium uptake assay, low pH (proton) agonist; type: cell-based; design: expressed in transfected cells; host or cells: T-REx HEK 293 (Invitrogen), pcDNA5/TO vector; conditions: HEK293; 0.3 μM compound; low pH (protons) as agonist; HEK 293 cells expressing hVR1; read-out: Low pH % Inhib. @ 0.3 μM
Target sequence in this assay (Q8NER1 whole entry): as above

[7] = biological target: T1, VR1; experiment: Acid stimulation assay (FDSS 6000); type: cell-based; conditions: final assay buffer pH5.8, 15 min pre-incubation
Description: The Acid-induced changes in the intracellular calcium concentration were monitored using FDSS 6000 (Hamamatsu Photonics, Japan), a fluorometric imaging system. The cell suspension in resting buffer (HBSS supplemented with 10 mM HEPES, pH 7.4) was pre-incubated with varying concentrations of the test compounds or resting buffer (buffer control) for 15 minutes at room temperature under dark conditions. The cells were automatically added the stimulating solution (HBSS supplemented with MES, final assay buffer pH5.8) by the FDSS 6000.
Target sequence in this assay (Q8NER1 whole entry, species assumed): as the sequence (Q8NER1 whole entry) above

Cc1cc(/C=C/C(F)(F)F)ccc1C(=O)Nc1cnc2ccccc2c1 [Compound 187, 2-Methyl-N-quinolin-3-yl-4-((E)-3,3,3-trifluoro-propenyl)-benzamide]
inhibition of the Capsaicin induced intracellular calcium response [1]: significant inhibition | bioavailability [2]: 43% | clearance [2]: 1.83 mL/min/kg

O=C(Nc1cccc2cnccc12)c1ccc(C#CC(F)(F)F)cc1 [Compound 45]
inhibition of the Capsaicin induced intracellular calcium response [1]: significant inhibition

Cc1cc(C#CC(C)(C)C)ccc1C(=O)Nc1ccc2c(c1)OCC(CO)N2 (stereo not drawn) [Compound 167]
inhibition of the Capsaicin induced intracellular calcium response [1]: significant inhibition

COc1cc(NC(=O)c2ccc(/C=C/C(C)C)cc2)cc(C(F)(F)F)c1 [Compound 240]
inhibition at 0.1 µM [3]: 50%

C/C(=C\C(F)(F)F)c1ccc(C(=O)Nc2ccc3c(c2)OCCN3)cc1 [Compound 96]
inhibition of the Capsaicin induced intracellular calcium response [1]: significant inhibition

Cc1cc(/C=C/C(F)(F)F)ccc1C(=O)Nc1cnc2c(c1)OCC(CO)N2 (stereo not drawn) [Compound 233]
inhibition of the Capsaicin induced intracellular calcium response [1]: significant inhibition | bioavailability [2]: 54% | clearance [2]: 33.3 mL/min/kg

Cc1cc(/C=C/C(F)(F)F)ccc1C(=O)Nc1ccc2sc(CO)nc2c1 [Compound 225]
clearance [2]: 1.52 mL/min/kg | inhibition of the Capsaicin induced intracellular calcium response [4]: reduced; also recorded: significant inhibition

Cc1cc(/C=C/C(F)(F)F)ccc1C(=O)Nc1ccc2cc(C(C)O)cnc2c1 (stereo not drawn) [Compound 304, (E)-N-(3-(1-hydroxyethyl)quinolin-7-yl)-2-methyl-4-(3,3,3-trifluoroprop-1-enyl)benzamide]
bioavailability [2]: > 100% | clearance [2]: 20.6 mL/min/kg | half-life at 1 μM [5]: 51 min | inhibition at 0.3 µM [6]: 98% | IC50 [7]: 4 nM

Cc1cc(/C=C/C(F)(F)F)ccc1C(=O)Nc1ccc2cc(COCCO)cnc2c1 [Compound 305, (E)-N-(3-((2-Hydroxyethoxy)methyl)quinolin-7-yl)-2-methyl-4-(3,3,3-trifluoroprop-1-enyl)benzamide]
bioavailability [2]: > 100% | clearance [2]: 11.2 mL/min/kg | half-life at 1 μM [5]: 16.8 min | inhibition at 0.3 µM [6]: 105% | IC50 [7]: 12 nM

Cc1cc(/C=C/C(F)(F)F)ccc1C(=O)Nc1ccc2cc(C(C)(C)O)cnc2c1 [Compound 303, (E)-N-(3-(2-Hydroxypropan-2-yl)quinolin-7-yl)-2-methyl-4-(3,3,3-trifluoroprop-1-enyl)benzamide]
bioavailability [2]: > 100% | clearance [2]: 11.3 mL/min/kg | half-life at 1 μM [5]: 57.6 min | inhibition at 0.3 µM [6]: 90% | IC50 [7]: 37 nM
